Experimental data as given in US20100233156A1, “Treating Central Nervous System Injury with Beta and Gamma Secretase Inhibitors” (GEORGETOWN UNIVERSITY, priority 2009, published 2010).
“Also recorded” adds a separate entry of the source.

What was measured:
[1] = tested on: TBI mice (controlled cortical impact); experiment: Morris water maze (spatial learning) after CCI; type: in vivo, mouse
Protocol: A Morris water maze paradigm was used to assess spatial learning by training mice to locate a hidden, submerged platform using extramaze visual information (Fox et al., J. Neurotrauma 15:599-614 (1998)). The test was conducted 15-18 days after injury, and each mouse was tested for four trials per day for four consecutive days. Uninjured Bace1^+/+ mice were used as a behavioral control. Injured Bace1^+/+ mice had significant learning impairments on all 4 days of testing compared to uninjured Bace1^+/+ mice (P<0.01). Injured Bace1^−/− mice, however, improved rapidly, and on the final day of testing were indistinguishable from uninjured mice (FIG. 5, P<0.01). All groups had similar escape latencies when presented with a visual platform probe test (uninjured Bace1^+/+, 23.4±6.3 seconds; injured Bace1^+/+, 21.1±7.8 seconds; injured Bace1^−/−, 21.2±4.9 seconds).
(§1) The other secretase involved in amyloidogenic processing of APP is γ-secretase, and the pharmacological inhibitor N-[N-(3,5-difluorophenacetyl-L-alanyl)]-S-phenlyglycine t-butyl ester (DAPT) was used to block enzyme activity. […] Each mouse received the initial dose 15 minutes after CCI or sham surgery and then twice daily for 21 days. This dosing regime was implemented because Aβ is known to drop after γ-secretase inhibition before recovering over several hours (Abramowski et al., J. Pharmacol. Exp. Ther. 327:411-24 (2008), El Mouedden et al., Curr. Pharm. Des. 12:671-6 (2006)). To confirm γ-secretase inhibition in DAPT-treated mice, Aβ concentrations were measured. Three hours after final drug administration, Aβ levels were reduced by 25% (13.76±0.8 fmol per mg protein (vehicle-treated TBI mice) versus 10.42±0.4 fmol per mg protein (DAPT-treated TBI mice); P<0.01), and APP carboxy-terminal fragments accumulated.
(§2) On the day after CCI, the first beam walk test was conducted. Vehicle-treated TBI mice made 50±0 foot faults and improved to 43±2 foot faults on the final day of testing (FIG. 9). […] Spatial learning with the Morris water maze was also tested.

[2] = tested on: TBI mice (controlled cortical impact); experiment: Histological assessment of lesion volume and NeuN stereology count of CA1 neurons; type: in vivo, mouse
From the text: (§3) The representative MRI images show a vehicle-treated TBI mouse with the brain lesion visible through 4 mm (8 mm×0.5 mm longitudinal sections) of tissue, whereas DAPT treatment results in damage through only 1.5 mm (3 mm×0.5 mm sections) (FIG. 13). […] The damage to the hippocampus was not as extensive as that seen in the Bacel study; however, cell loss in the CA1 region of mice after TBI was clearly visible (FIG. 16). This allowed quantification of cell loss in the hippocampus (FIG. 17). Neurons were stained with NeuN, a neuronal marker, and an unbiased stereology count was performed. TBI caused a 34% decrease in NeuN-positive cells in the CA1 region of the ipsilateral hippocampus (P<0.05). DAPT treatment attenuated this cell loss, resulting in a 10% reduction in CA1 neurons (P<0.05 versus vehicle-treated TBI mice).

[3] = tested on: mouse model of stroke; settings: after ischemia and reperfusion; Arumugam et al. 2006; cited from earlier work
[4] = tested on: γ-secretase; experiment: Aβ concentrations in DAPT-treated TBI mice, to confirm γ-secretase inhibition; type: in vivo, mouse; settings: three hours after final drug administration
Protocol: as §1

[5] = tested on: TBI mice (controlled cortical impact); experiment: Beam walk test (fine motor coordination) after CCI; type: in vivo, mouse; settings: for foot faults (beam walk): TBI mice, 50 steps
Protocol: To test the effect of β-secretase on TBI outcome, the B-APP cleaving enzyme-1 (BACE1) Bace1^−/− knockout mouse was used. Bace1 is the initial rate-limiting enzyme for Aβ production. Bace1^−/− mice are unable to produce any species of Aβ (Cai et al., Nat. Neurosci. 4:233-4 (2001)), and the absence of Aβx-40 in brain homogenates by ELISA (0.1±0.09 fmol per mg protein) was confirmed. CCI surgery was performed, and the beam walk test was used to detect fine motor coordination aberrations (Fox et al., J. Neurotrauma 15:599-614 (1998)). This test examines the number of errors (foot faults) made by the right hind limb over 50 steps. The mice were trained on the test before injury, and the test was repeated on 1 day, 3 days, 7 days, 14 days, and 21 days after TBI. Injured Bace1^−/− mice made fewer foot faults at multiple time points, with a 38% final improvement over injured Bace1^+/+ mice (FIG. 4, P<0.001).
as §1, §2

[6] = tested on: TBI mice (controlled cortical impact); experiment: MRI of brain lesion 21 days after CCI; type: in vivo, mouse
From the text: Five mice in each TBI group were randomly chosen for T2-weighted magnetic resonance imaging (MRI) analysis at 21 days after trauma. […] This was confirmed by fixed brain tissue sections (FIG. 7). […] Total lesion volume was reduced by 30% in […] (FIG. 9, P<0.05).
as §3

Q: Which “escape latency, visible platform probe” value ([1]; TBI mice) does the source give for `C[C@H](NC(=O)Cc1cc(F)cc(F)c1)C(=O)N[C@H](C(=O)OC(C)(C)C)c1ccccc1` [DAPT, N-[N-(3,5-Difluorophenacetyl)-L-alanyl]-S-phenylglycine t-butyl ester] here?
A: 17.5 ± 3.7 s

Q: And the “spatial learning in Morris water maze” value ([1]; TBI mice, 4 days of test, in words)?
A: indistinguishable from sham-injured mice; also recorded: prevents these deficits

Q: What about the “escape latency, visible platform probe” value ([1]; sham-operated mice) of the same compound?
A: 13.6 ± 3.4 s

Q: What about the “tissue sparing (histology)” value ([2]; H&E sections, in words) of the same compound?
A: spared large areas of cortex and subcortical white matter tracts; also recorded: Subcortical white matter tracts are spared

Q: What about the “reduction in CA1 neurons (NeuN-positive cells, ipsilateral hippocampus)” value ([2]; TBI mice, stereology count) of the same compound?
A: 10%

Q: And the “neuronal populations in ipsilateral CA1 versus contralateral” value ([2]; stereology cell counts, in words)?
A: This reduction is prevented

Q: What about the lesion volume ([2]; versus vehicle control, in words) of the same compound?
A: reduced

Q: What about the lesion volume decreased ([2]; versus vehicle-treated TBI mice) of the same compound?
A: > 70%

Q: What about the infarct area [3] of the same compound?
A: reduced infarct area

Q: What about the neurological function [3] of the same compound?
A: improved neurological function

Q: What about the Aβ levels reduced ([4]; DAPT 30 mg per kg orally twice daily for 21 days, versus vehicle-treated TBI mice) of the same compound?
A: 25%

Q: What about the APP carboxy-terminal fragments ([4]; DAPT-treated TBI mice) of the same compound?
A: accumulated

Q: What about the Aβ concentration ([4]; DAPT-treated TBI mice) of the same compound?
A: 10.42±0.4 fmol per mg protein

Q: What about the “improvement in foot faults over vehicle-treated TBI mice” value ([5]; 21 days after injury) of the same compound?
A: 42%

Q: What about the “foot faults (beam walk)” value ([5]; 21 days after injury) of the same compound?
A: 25±5 foot faults

Q: And the “foot faults (beam walk)” value ([5]; day after surgery)?
A: 48±1 foot faults

Q: What about the “recovery of fine motor coordination on beamwalk test” value ([5]; after 21 days, in words) of the same compound?
A: Recovery is improved

Q: What about the “lesion size by MRI” value ([6]; injured mice, in words) of the same compound?
A: substantially reduced lesion size

Q: And the “depth of tissue through which damage is visible on MRI” value ([6]; representative images, 0.5 mm sections)?
A: 1.5 mm
